Entries after “also recorded” stand apart in the source; their conditions may differ. Where two headings read alike, the source gives them in different places.

The target of one assay is PRMT5-RIOK1 complex (Homo sapiens, UniProt O14744). The experiment in a line: PRMT5-RIOK1 NanoBiT assay in permeabilized cells. It is filed as cell-based.
The target in assay [1] is PRMT5:WDR77 hetero-octameric complex (Homo sapiens, UniProt O14744). The experiment in a line: Fluorescence polarization. It is filed as binding. The following applies: for inhibition of PRMT5-PBM peptide binding (in words): FP assay. For orientation: In fluorescence polarisation assays a small probe gives low polarisation when free and higher when bound to something large.
Sequence of PRMT5:WDR77 hetero-octameric complex (O14744 whole entry): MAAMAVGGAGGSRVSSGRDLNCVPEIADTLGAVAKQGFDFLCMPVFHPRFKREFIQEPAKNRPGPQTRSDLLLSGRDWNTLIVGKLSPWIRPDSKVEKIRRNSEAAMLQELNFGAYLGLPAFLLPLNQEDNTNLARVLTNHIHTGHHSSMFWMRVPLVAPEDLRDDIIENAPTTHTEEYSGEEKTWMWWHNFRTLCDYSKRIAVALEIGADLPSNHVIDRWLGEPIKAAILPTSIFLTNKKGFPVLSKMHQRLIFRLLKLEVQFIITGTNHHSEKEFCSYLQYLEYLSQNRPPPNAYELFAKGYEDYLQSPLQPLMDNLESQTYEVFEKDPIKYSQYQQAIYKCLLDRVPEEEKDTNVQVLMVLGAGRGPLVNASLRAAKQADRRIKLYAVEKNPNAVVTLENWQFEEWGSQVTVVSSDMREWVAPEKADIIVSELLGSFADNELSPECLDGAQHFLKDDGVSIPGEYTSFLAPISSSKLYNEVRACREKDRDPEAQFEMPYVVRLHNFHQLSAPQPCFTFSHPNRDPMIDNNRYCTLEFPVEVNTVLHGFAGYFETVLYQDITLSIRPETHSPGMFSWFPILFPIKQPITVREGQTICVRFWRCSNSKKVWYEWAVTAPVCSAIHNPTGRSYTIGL
Sequence of PRMT5:WDR77 hetero-octameric complex (Q9BQA1 whole entry partner): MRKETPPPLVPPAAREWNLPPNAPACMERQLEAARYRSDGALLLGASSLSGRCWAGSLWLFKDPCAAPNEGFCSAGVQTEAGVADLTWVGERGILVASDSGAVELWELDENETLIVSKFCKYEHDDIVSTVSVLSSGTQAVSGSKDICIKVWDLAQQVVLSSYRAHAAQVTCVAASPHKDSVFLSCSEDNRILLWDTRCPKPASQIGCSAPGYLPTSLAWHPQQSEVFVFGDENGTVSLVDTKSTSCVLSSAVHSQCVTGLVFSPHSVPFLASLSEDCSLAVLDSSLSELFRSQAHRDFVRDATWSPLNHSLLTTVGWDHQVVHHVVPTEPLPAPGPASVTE

The target of the next assay is PRMT5 C278A mutant (Homo sapiens, UniProt O14744, C278A). The experiment in a line: FP competition assay with C278A mutant PRMT5.
Sequence of PRMT5 C278A mutant (O14744 whole entry C278A): as the sequence (O14744 whole entry) above, with C278A counted along it
Sequence of PRMT5 C278A mutant (Q9BQA1 whole entry partner): as the sequence (Q9BQA1 whole entry partner) above
The next assay has as its target PRMT5:WDR77 complex (Homo sapiens, UniProt O14744). The experiment in a line: SPR competition assay, full-length pICln titrated on pre-incubated PRMT5:WDR77. It is filed as binding. The following applies: PRMT5 pre-incubated with 2 μM compound overnight at 4C.
The test system of assay [2] is symmetric arginine dimethylation levels in MTAP−/− HCT116 cells. The experiment in a line: Western blot of total symmetric arginine dimethylation. It is filed as cell-based. The following applies: 25 μM. In general terms: A western blot detects proteins with antibodies after separation by electrophoresis.
In a further assay the target is PRMT5 (Homo sapiens, UniProt O14744). The experiment in a line: Target engagement in cells. It is filed as cell-based. The following applies: Expi293 cells, 6 hours, maximum labeling.
Sequence of PRMT5 (O14744 whole entry): as the sequence (O14744 whole entry) above
Sequence of PRMT5 (Q9BQA1 whole entry partner): as the sequence (Q9BQA1 whole entry partner) above

Sequence of PRMT5-RIOK1 complex (O14744 whole entry): as the sequence (O14744 whole entry) above
Sequence of PRMT5-RIOK1 complex (Q9BQA1 whole entry partner): as the sequence (Q9BQA1 whole entry partner) above
Sequence of PRMT5:WDR77 complex (O14744 whole entry): as the sequence (O14744 whole entry) above
Sequence of PRMT5:WDR77 complex (Q9BQA1 whole entry partner): as the sequence (Q9BQA1 whole entry partner) above

Turning to `Cc1ccc(N(C)C(=O)[C@H](C)n2ncc(Cl)cc2=O)cc1S(=O)(=O)NCCc1ccccn1` [Compound 29, (2S)-2-(4-chloro-6-oxo-pyridazin-1-yl)-N-methyl-N-[4-methyl-3-[2-(2-pyridyl)ethylsulfamoyl]phenyl]propanamide], the “disruption of PRMT5-RIOK1 complex, permeabilized cells (in words)” value on PRMT5-RIOK1 complex was “inactive”.

Consider `Nc1nc2cc(CC[C@H]3C[C@@H](n4ccc5c(N)ncnc54)[C@H](O)[C@@H]3O)ccc2cc1Br` [JNJ-64619178], for which the “inhibition of PRMT5-PBM peptide binding (in words)” value (“inhibition” below) in assay [1] is recorded as “failed to inhibit this binding”.

As for `O=C(NC[C@H](O)CN1CCc2ccccc2C1)c1cc(NC2COC2)ncn1` [EPZ015666], the “inhibition” value in assay [1] is given as “failed to inhibit this binding”.

What is called IC50 is the midpoint of a concentration-inhibition curve. On to “competitor PBM peptide: pICln 13-mer control peptide displacing the fluorescently-labeled PBM probe (TVAGQFEDADVDH; Terminal caps are) [reference compound]”, for which the 50% inhibitory concentration (IC50) with PRMT5 C278A mutant (read-out: FP IC50 against C278A mutant, Fig. 3b, C278A PRMT5) was found to be 1400 nM; in assay [1] (read-out: FP IC50 against WT PRMT5, Fig. 3b, WT vs C278A comparison) it was 2000 nM.

For `Cc1ccc(NC(=O)Cn2ncc(Cl)c(Cl)c2=O)cc1S(=O)(=O)NCCc1ccccn1` [Compound 6, 2-(4,5-Dichloro-6-oxopyridazin-1(6H)-yl)-N-(4-methyl-3-(N-(2-(pyridin-2-yl)ethyl)sulfamoyl)phenyl)acetamide], the figures for the IC50 (at PRMT5 C278A mutant; in assay [1]) were over 100000 nM and 600 nM, respectively. Also, on PRMT5:WDR77 complex, the “pICln binding to compound-treated PRMT5 (in words)” value is “greatly reduced binding response”.

In assay [1], `CSC[C@H]1O[C@@H](n2cnc3c(N)ncnc32)[C@H](O)[C@@H]1O` [MTA, 5′-S-Methyl-5′-thioadenosine] came in with a half-maximal inhibitory concentration (IC50) of over 100000 nM.

`CN(C)S(=O)(=O)N1CCCC(NC(=O)Cn2ncc(Cl)c(Cl)c2=O)C1` (stereo not drawn) [Compound 18, 2-(4,5-Dichloro-6-oxopyridazin-1(6H)-yl)-N-(1-(N,N-dimethylsulfamoyl)piperidin-3-yl)acetamide]: the “inhibition” value in assay [1] was “no ability to displace the PBM peptide”.

`Cc1ccc(NC(=O)[C@H](C)n2ncc(Cl)cc2=O)cc1S(=O)(=O)NCCc1ccccn1` [Compound 27, (2S)-2-(4-chloro-6-oxo-pyridazin-1-yl)-N-[4-methyl-3-[2-(2-pyridyl)ethylsulfamoyl]phenyl]propanamide]: the “symmetric arginine dimethylation levels by WB (in words)” value in assay [2] is listed as “reduction in symmetric arginine dimethylation levels; also recorded: reduces SDMA”. On PRMT5, the “total PRMT5 protein labeled” value is ~ 40%.

The record behind these values is PMC9036822 (Journal of medicinal chemistry, 2021).
